From patent US6525028B1, “Immunoeffector compounds” (Corixa Corporation, priority 2002, dated 2003)
Entries after “also recorded” stand apart in the source; their conditions may differ. Counter-ions that a name gives are not always drawn.

Legend:
[1] = Rabbit pyrogen test; type: in vivo, rabbits; settings: for Pyrogenicity (total rise of 3 rabbits): total rise of 3 rabbits following i.v. 10 μg/Kg dose, solubilized in 10% EtOH/WFI, diluted with 5% dextrose in water
Description: In an effort to obtain an immunostimulant that has low pyrogenicity, synthetic molecules have been prepared which share structural similarities with the MPLO immunostimulant. These novel molecules which are collectively called aminoalkyl glucosaminide phosphates (AGPs), consist of an acylated […] moiety linked to an acylated aminoalkyl group (Johnson et al. (1999) Bioorg. Med. Chem. Lett. 9: 2273-2278; PCTAWO98/50399 and references therein). […] The substitution of different chemical moieties within the aminoalkyl structures was designed into the AGPs in anticipation of optimizing stability and solubility properties. Thus the AGPs can be broadly separated into several families based on the structure of their aminoalkyl groups. After initial biological evaluation, it became apparent that the aminoalkyl motifs could dramatically affect the pyrogenic properties of the AGPs (see U.S. patent application Ser. No. 09/074,720 filed May 7, 1998, and U.S. Pat. Nos. 6,113,918 and 6,303,347). As part of the initial screening process of the synthetic adjuvant compounds, rabbit pyrogenicity data was determined. […] Here we report on studies of the adjuvant properties of a class of AGPs which induce minimal activity in both the rabbit pyrogen test and the ex vivo cytokine assay.

[2] = system: HBsAg; assay: Adjuvant activity towards HBsAg, IgG1 and IgG2a isotype titers by ELISA (Example 6); type: in vivo, BALB/c mice; settings: for Serum Titers IgG1 / Serum Titers IgG2a: s.c. 2.0 μg HBsAg + 25 μg adjuvant day 0 and 21, pooled sera 21 days post secondary; for titers to HBsAg, in words: versus control group receiving antigen in PBS / positive control MPL
Protocol: Groups of BALB/c mice injected subcutaneous with 2.0 μg HBsAg(Rhein Americana, & Rhein Biotech) ±25 μg adjuvant (MPLO immunostinulant orCompound II) on day 0 and day 21. IgG1 and IgG2a isotype titers to HBsAg were determined by ELISA from pooled sera collected 21 days post secondary (Table 3). The nonimmune controls were not vaccinated.

[3] = system: IL-1β; assay: Ex vivo cytokine induction, IL-1β by sandwich ELISA (Example 8); type: cell-based, human; settings: for relative induction of IL-1β: level induced with MPL immunostimulant assigned a value of 1
Protocol: (§1) The effects of Compound II on the elaboration of TNF-α and IL-1β was measured under ex vivo conditions on human peripheral blood mononuclear cells. MPL® immunostimulant and Compound II were formulated in aqueous solutions of 0.2% TEoA/WFI.
(§2) Human whole blood was used to evaluate the ability of glycolipids (AGPS) to induce proinflammatory cytokines. Human whole blood is collected into heparinized tubes and 0.45 ml of whole blood is admixed with 0.05 ml phosphate buffered saline (PBS, pH 7.4) containing the glycolipid (i.e., the test compounds). The tubes are incubated for 4 hr at 37° C. on a shaker apparatus. The samples are then diluted with 1.5 ml sterile PBS and centrifuged. The supernatants are removed and analyzed for […] TNF-α and IL-1β by sandwich ELISA using R&D Systems' Quantikine immunoassay kits for human TNF-α and IL-1β.

[4] = system: TNF-α; assay: Ex vivo cytokine induction, TNF-α by sandwich ELISA (Example 8); type: cell-based; settings: human blood cells, 4 hr at 37° C.
Protocol: as §1, §2

[5] = system: HBsAg (Hepatitis B Surface Antigen); assay: Adjuvant activity towards HBsAg, serum titers by ELISA (Example 4); type: in vivo, BALB/c mice; settings: for Serum Titers IgG / Serum Titers IgG1 / Serum Titers IgG2a / Serum Titers IgG2b: s.c. 2 μg HBsAg + 20 μg adjuvant day 0 and 21, pooled sera (5 mice/group) 21 days post-secondary
Protocol: Vaccines were prepared by mixing the adjuvant-containing TEoA (triethanolamine) formulations with recombinant HBsAg. Titers to HBsAg were determined by ELISA from pooled sera (5 mice/group) collected 21 days post-secondary vaccination (Table 1). The nonimmune controls were not vaccinated.

[6] = system: hemagglutinin protein in FluZone influenza vaccine; assay: Adjuvant activity towards hemagglutinin protein in FluZone influenza vaccine, FluZone ELISA (Example 5); settings: for Serum Titers IgG / Serum Titers IgG1 / Serum Titers IgG2a / Serum Titers IgG2b: s.c. 0.2 μg hemagglutinin in FluZone + 20 μg adjuvant day 0 and 14, pooled sera of 5 mice 14 days post secondary
Protocol: Groups of BALB/c mice (Jackson Laboratories Bar Harbor, Me.) 6-8 weeks old were injected subcutaneous with 0.2 μg hemagglutinin protein in FluZone influenza vaccine (Connaught Laboratories, Swiftwater, Pa.) ±20 μg adjuvant (MPL® immunostimulant orCompound II) on day 0 and day 14. […] The nonimmune controls were not vaccinated. The initial dilutions used on sera from test groups was 1:1600.

[7] = cited from earlier work
[8] = system: Inducible Nitric Oxide Synthase (iNOS); assay: iNOS induction in IFN-γ primed J774 murine macrophages, Greiss reagent nitrite release (Example 9); type: cell-based; settings: IFN-γ primed J774 cells
Protocol: This example illustrates the effects of various glycolipids on iNOS induction in J774 murine macrophages. The murine macrophage cell line J774 can be primed by IFN-γ in vitro and is very responsive to subsequent LPS stimulation of iNOS upregulation as measured by a standard Greiss reagent ELISA assay procedure. The assay utilizes J774 cells seeded at 1×10^6/mL with 30 mL/flask and with IFN-γ added at 100 units/mL for 16-24 hrs. Cells are then harvested and washed and resuspended at 2×10^5/well in a 96-well plate and allowed to adhere. Glycolipid compounds are serially diluted into the wells for a test group and the resulting cultures are incubated for another 36-40 hrs before culture supernatants are collected from Greiss reagent analysis of nitrite release (Green et al. (1982) Anal. Biochem. 126: 131-138). Nitrite content closely parallels iNOS function.
Potency was determined as the concentration (ng/mL) of glycolipid in culture capable of inducing one-half maximal induction of nitrite (ED50). The lower the ED50 number, the greater the potency for iNOS induction. The ED50 was cacluated according to methods set out in Johnson et al., (1999) J Med Chem. 42: 4640-4649.

[9] = versus control sera receiving antigen alone

Compound	Pyrogenicity (total rise of 3 rabbits) [1]	Serum Titers IgG1 [2]	Serum Titers IgG2a [2]	titers to HBsAg, in words [2]	relative induction of IL-1β [3]	Serum Titers IgG [5]	Serum Titers IgG1 [5]	Serum Titers IgG2a [5]	Serum Titers IgG2b [5]	Serum Titers IgG [6]	Serum Titers IgG1 [6]	Serum Titers IgG2a [6]	Serum Titers IgG2b [6]	other results
CCCCCCCCCCCCCC(=O)O[C@H](CCCCCCCCCCC)CC(=O)N[C@H]1[C@H](OC[C@@H]2CCCN2C(=O)C[C@@H](CCCCCCCCCCC)OC(=O)CCCCCCCCCCCCC)O[C@H](CO)[C@@H](OP(=O)(O)O)[C@@H]1OC(=O)C[C@@H](CCCCCCCCCCC)OC(=O)CCCCCCCCCCCCC [Compound II, N-[(R)-3-tetradecanoyloxytetradecanoyl]-(S)-2-pyrrolidinylmethyl 2-deoxy-4-O-phosphono-2-[(R)-3-tetradecanoyloxytetradecanoylamino]-3-O-[(R)-3-tetradecanoyloxytetradecanoyl]-β-D-glucopyranoside triethylammonium salt]	0.3 °C	32,000	2,048,000	increased titers compared to the control group	≤ 0.05	409,600	204,800	409,600	51,200	51,200	102,400	25,600	6400	fever response in the rabbit pyrogen test, in words ([1]; i.v. 10 μg/kg): apparent lack of fever; induction of IL-1β, in words ([3]; ex vivo, human blood cells, 4 hr at 37° C., Compound II at 1, 5 and 10 μg/ml): did not produce detectable levels of IL-1β; also recorded: without inducing detectable levels; induction of TNF-α, in words ([4]; Compound II at 1, 5 and 10 μg/ml): did not produce levels of TNF-α that could be detected; also recorded: without inducing detectable levels; anti-HBsAg responses (serum titers), in words [5, 9]: significantly higher than control sera receiving antigen alone; titers to FluZone, in words [6, 9]: significantly higher than control sera receiving antigen alone
Monophosphoryl lipid A [MPL® immunostimulant, reference compound]	2-3 °C	128,000	1,024,000		1	409,600	204,800	204,800	51,200	102,400	102,400	25,600	12,800	dose that can be safely administered to humans ([7]; humans): at least 20 μg/kg; dose levels at which increases in temperature, flu-like symptoms, increasing heart rate and modest decreases in blood pressure can occur ([7]; some patients): ≥ 10 µg/kg; iNOS induction / nitrite elaboration, in words [8]: high levels of nitrite elaboration; concentration effective at inducing TNF-α [4]: 100 to 10,000 ng/mL
N-[(R)-3-tetradecanoyloxytetradecanoyl]-(S)-2-pyrrolidinylmethyl 2-deoxy-4-O-phosphono-2-[(R)-3-tetradecanoyloxytetradecanoylamino]-3-O-[(R)-3-tetradecanoyloxytetradecanoyl]-β-D-glucopyranoside triethylammonium salt [Compound II]				titers equivalent to the positive controls										
